Consider 30 compounds from patent US20230416262A1, “TRPML MODULATORS” (Casma Therapeutics, Inc., priority 2020, published 2023).

Some results are limits rather than exact numbers.

One test concerns TFEB. As to the kind of experiment: TFEB nuclear translocation assay. It is filed as cell-based. The settings on record: Homo sapiens; HeLa wt or HeLa TRPML1 KO cells, treated for 2 hrs; ratio of nuclear to ring-region TFEB intensity. In outline: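 HeLa wild-type or TRPML1 KO cells treated 2 h with compound at 37 °C, PFA-fixed, immunostained for TFEB (Alexa 488) with Hoechst nuclei. Imaged at ×20, four fields/well. Value is ratio of nuclear to perinuclear-ring TFEB intensity, with nuclei counts.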

For another test, the system named is THP-1 cells. As to the kind of experiment: Lamp1 lysosomal exocytosis assay. It is filed as cell-based. As to conditions: Homo sapiens, 55 min, 55 min incubation, top dose 20 μM. Summed up: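 THP-1 cells (1e5/well) exposed to a 7-point 3-fold compound series, top final 20 μM, for 55 min at 37°C. Surface Lamp1 then stained with Lamp1-PE on ice in buffer containing 80 μM Dynasore, and read by flow cytometry as PE geometric mean on live, sytox-negative singlets.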

A word on the EC50: it is the concentration that produces a half-maximal response. For `CC1(C)Cc2cc(S(=O)(=O)N3CC4(CCCC4)c4ccccc43)ccc2O1` [Compound I-2, 1′-[(2,2-dimethyl-2,3-dihydro-1-benzofuran-5-yl)sulfonyl]-1′,2′-dihydrospiro[cyclopentane-1,3′-indole]], the 50% effective concentration (EC50) in the test on TFEB was 2.01 to 8 µM; in the test with THP-1 cells it was not below 5.01 µM.
On the same counts, the results for `CC1(C)COc2ccc(S(=O)(=O)N3CC4(CCCC4)c4ccccc43)cc21` [Compound I-5, 1′-[(3,3-dimethyl-2,3-dihydro-1-benzofuran-5-yl)sulfonyl]-1′,2′-dihydrospiro[cyclopentane-1,3′-indole]] are not above 2 µM and not below 5.01 µM.
On the same counts, the results for `O=S(=O)(c1ccc(OC(F)(F)F)cc1)N1CC2(CCCC2)c2ccccc21` [Compound I-31, 1′-[4-(trifluoromethoxy)benzenesulfonyl]-1′,2′-dihydrospiro[cyclopentane-1,3′-indole]] are 2.01 to 8 µM and not below 5.01 µM.
On the same counts, the results for `O=S(=O)(c1ccc2c(c1)CCC(C(F)F)O2)N1CC2(CCCC2)c2ccccc21` (stereo not drawn) [Compound I-35, 1′-{[2-(difluoromethyl)-3,4-dihydro-2H-1-benzopyran-6-yl]sulfonyl}-1′,2′-dihydrospiro[cyclopentane-1,3′-indole]] are 2.01 to 8 µM and not below 5.01 µM.
Turning to `O=S(=O)(c1ccc(C2CC2(F)F)cc1)N1CC2(CCCC2)c2ccccc21` (stereo not drawn) [Compound I-48, 1′-[4-(2,2-difluorocyclopropyl)benzenesulfonyl]-1′,2′-dihydrospiro[cyclopentane-1,3′-indole]], the EC50 was 2.01 to 8 µM in the test with TFEB and not below 5.01 µM with THP-1 cells.
For `CC1(C)Oc2ccc(S(=O)(=O)N3CC4(CCCC4)c4ccccc43)cc2O1` [Compound I-57, 1′-[(2,2-dimethyl-2H-1,3-benzodioxol-5-yl)sulfony1]-1′,2′-dihydrospiro[cyclopentane-1,3′-indole]] the same measures were 2.01 to 8 µM and not below 5.01 µM.
On the same counts, the results for `O=S(=O)(c1ccc2c(c1)CCC2)N1CC2(CCCC2)c2ccccc21` [Compound I-67, 1′-((2,3-dihydro-1H-inden-5-yl)sulfonyl)spiro[cyclopentane-1,3′-indoline]] are 2.01 to 8 µM and not below 5.01 µM.
On the same counts, the results for `CN(C)S(=O)(=O)c1ccc(S(=O)(=O)N2CC3(CCCC3)c3ccccc32)cc1` [Compound I-68, 4-({1′,2′-dihydrospiro[cyclopentane-1,3′-indol]-1′-yl}sulfonyl)-N,N-dimethylbenzene-1-sulfonamide] are not above 2 µM and not above 0.5 µM.
Consider `CN(C)S(=O)(=O)c1ccc(S(=O)(=O)N2CC3(CCN(C(=O)C(C)(C)C)C3)c3ccccc32)cc1` (stereo not drawn) [Compound I-73, 4-{[1′-(2,2-dimethylpropanoyl)-1,2-dihydrospiro[indole-3,3′-pyrrolidin]-1-yl]sulfonyl}-N,N-dimethylbenzene-1-sulfonamide], for which the half-maximal effective concentration (EC50) in the test with TFEB is 2.01 to 8 µM; in the test on THP-1 cells, not below 5.01 µM.
With `Cc1cccc(S(=O)(=O)N2CC3(CCCC3)c3ccccc32)c1` [Compound I-74, 1′-(3-methylbenzenesulfonyl)-1′,2′-dihydrospiro[cyclopentane-1,3′-indole]], the figures for the half-maximal effective concentration (EC50) with TFEB and with THP-1 cells were 2.01 to 8 µM and not below 5.01 µM, respectively.
On the same counts, the results for `Cc1ccc2c(c1)N(S(=O)(=O)c1ccc(S(=O)(=O)N(C)C)cc1)CC21CCCC1` [Compound I-79, N,N-dimethyl-4-((6′-methylspiro[cyclopentane-1,3′-indolin]-1′-yl)sulfonyl)benzenesulfonamide] are not above 2 µM and not above 0.5 µM.
For `O=C(OCc1ccccc1)N1CCC2(CC1)CN(S(=O)(=O)Cc1ccccc1)c1ccccc12` [Compound I-80, benzyl 1-(benzylsulfonyl)spiro[indoline-3,4′-piperidine]-1′-carboxylate] the same measures were not above 2 µM and not below 5.01 µM.
In the case of `O=C(OCc1ccccc1)N1CCC2(CC1)CN(S(=O)(=O)c1ccc(C(F)F)cc1)c1ccccc12` [Compound I-81], the figures for the EC50 in the test with TFEB and in the test with THP-1 cells were not above 2 µM and not above 0.5 µM, respectively.
On the same counts, the results for `CN1CCC2(CC1)CN(S(=O)(=O)c1ccc(C(F)F)cc1)c1ccccc12` [Compound I-83] are not below 10 µM and not below 5.01 µM.
On the same counts, the results for `O=S(=O)(c1ccc(C(F)F)cc1)N1CC2(CCN(CC(F)(F)F)CC2)c2ccccc21` [Compound I-86, 1-[4-(difluoromethyl)benzenesulfonyl]-1′-(2,2,2-trifluoroethyl)-1,2-dihydrospiro[indole-3,4′-piperidine]] are not above 2 µM and not below 5.01 µM.
On the same counts, the results for `CN(C)S(=O)(=O)c1ccc(S(=O)(=O)N2CC3(CCN(CC(F)(F)F)CC3)c3ccccc32)cc1` [Compound I-87, N,N-dimethyl-4-{[1′-(2,2,2-trifluoroethyl)-1,2-dihydrospiro[indole-3,4′-piperidin]-1-yl]sulfonyl}benzene-1-sulfonamide] are not above 2 µM and 0.51 to 1 µM.
For the compound `O=C(OCc1ccccc1)N1CCC2(C1)CN(S(=O)(=O)c1ccc(C(F)F)cc1)c1ccccc12` (stereo not drawn) [Compound I-91, benzyl 1-[4-(difluoromethyl)benzenesulfonyl]-1,2-dihydrospiro[indole-3,3′-pyrrolidine]-1′-carboxylate], the half-maximal effective concentration (EC50) was 2.01 to 8 µM in the test with TFEB and not below 5.01 µM in the test on THP-1 cells.
For `O=S(=O)(c1ccc(C(F)F)cc1)N1CC2(CCN(CC(F)(F)F)C2)c2ccccc21` (stereo not drawn) [Compound I-92, 1-[4-(difluoromethyl)benzenesulfonyl]-1′-(2,2,2-trifluoroethyl)-1,2-dihydrospiro[indole-3,3′-pyrrolidine]] the same measures were 2.01 to 8 µM and not below 5.01 µM.
For `CC1(C)COc2ccc(S(=O)(=O)N3CC4(CCCCC4)c4ccccc43)cc21` [Compound I-94, 1′-[(3,3-dimethyl-2,3-dihydro-1-benzofuran-5-yl)sulfonyl]-1′,2′-dihydrospiro[cyclohexane-1,3′-indole]] the same measures were not above 2 µM and not below 5.01 µM.
With `CN(C)S(=O)(=O)c1ccc(S(=O)(=O)N2CC3(CCCC3)c3c(F)cccc32)cc1` [Compound I-95, 4-({4′-fluoro-1′,2′-dihydrospiro[cyclopentane-1,3′-indol]-1′-yl}sulfonyl)-N,N-dimethylbenzene-1-sulfonamide], the values for the EC50 in the test on TFEB and in the test on THP-1 cells were not above 2 µM and not above 0.5 µM, respectively.
On the same counts, the results for `CN(C)S(=O)(=O)c1ccc(S(=O)(=O)N2CC3(CCN(CC(C)(F)F)CC3)c3ccccc32)cc1` [Compound I-97, 4-{[1′-(2,2-difluoropropyl)-1,2-dihydrospiro[indole-3,4′-piperidin]-1-yl]sulfonyl}-N,N-dimethylbenzene-1-sulfonamide] are not above 2 µM and 0.51 to 1 µM.
On the same counts, the results for `CN(C)S(=O)(=O)c1ccc(S(=O)(=O)N2CC3(CCN(CC4CCOCC4)CC3)c3ccccc32)cc1` [Compound I-98, N,N-dimethyl-4-({1′-[(oxan-4-yl)methyl]-1,2-dihydrospiro[indole-3,4′-piperidin]-1-yl}sulfonyl)benzene-1-sulfonamide] are not above 2 µM and 1.01 to 5 µM.
On the same counts, the results for `CN(C)S(=O)(=O)c1ccc(S(=O)(=O)N2CC3(CCCCC3)c3ccccc32)cc1` [Compound I-99, 4-({1′,2′-dihydrospiro[cyclohexane-1,3′-indol]-1′-yl}sulfonyl)-N,N-dimethylbenzene-1-sulfonamide] are not above 2 µM and not above 0.5 µM.
Turning to `CC1(C)COc2ccc(S(=O)(=O)N3CC4(CCCC4)c4c(F)cccc43)cc21` [Compound I-100, 1′-[(3,3-dimethyl-2,3-dihydro-1-benzofuran-5-yl)sulfonyl]-4′-fluoro-1′,2′-dihydrospiro[cyclopentane-1,3′-indole]], the figures for the half-maximal effective concentration (EC50) in the test on TFEB and in the test on THP-1 cells were not above 2 µM and not below 5.01 µM, respectively.
For `O=C(CCC(F)(F)F)N1CCC2(CC1)CN(S(=O)(=O)c1ccc(C(F)F)cc1)c1ccccc12` [Compound I-251, 1-(1-((4-(difluoromethyl)phenyl)sulfonyl)spiro[indoline-3,4′-piperidin]-1′-y1)-4,4,4-trifluorobutan-1-one], the 50% effective concentration (EC50) in the test with THP-1 cells was in the range of 1.01 to 5 µM.
The same measure, in the same setting: the same measure for `O=C(CCC1CCCO1)N1CCC2(CC1)CN(S(=O)(=O)c1ccc(C(F)F)cc1)c1ccccc12` (stereo not drawn) [Compound I-252, 1-(1-((4-(difluoromethyl)phenyl)sulfonyl)spiro[indoline-3,4′-piperidin]-1′-yl)-3-(tetrahydrofuran-2-yl)propan-1-one]: not below 5.01 µM.
Same read-out and setting: under `O=C(CCC1CCOC1)N1CCC2(CC1)CN(S(=O)(=O)c1ccc(C(F)F)cc1)c1ccccc12` (stereo not drawn) [Compound I-253, 1-(1-((4-(difluoromethyl)phenyl)sulfonyl)spiro[indoline-3,4′-piperidin]-1′-y1)-3-(tetrahydrofuran-3-yl)propan-1-one] stands not below 5.01 µM; under `O=C(COC1CCOC1)N1CCC2(CC1)CN(S(=O)(=O)c1ccc(C(F)F)cc1)c1ccccc12` (stereo not drawn) [Compound I-254, 1-(1-((4-(difluoromethyl)phenyl)sulfonyl)spiro[indoline-3,4′-piperidin]-1′-yl)-2-((tetrahydrofuran-3-yl)oxy)ethan-1-one], not below 5.01 µM.
The same measure, in the same setting: under `O=C(CC1CCOC1)N1CCC2(CC1)CN(S(=O)(=O)c1ccc(C(F)F)cc1)c1ccccc12` (stereo not drawn) [Compound I-255, 1-(1-((4-(difluoromethyl)phenyl)sulfonyl)spiro[indoline-3,4′-piperidin]-1′-yl)-2-(tetrahydrofuran-3-yl)ethan-1-one] stands not below 5.01 µM; under `O=C(CC1CCCO1)N1CCC2(CC1)CN(S(=O)(=O)c1ccc(C(F)F)cc1)c1ccccc12` (stereo not drawn) [Compound I-256, 1-(1-((4-(difluoromethyl)phenyl)sulfonyl)spiro[indoline-3,4′-piperidin]-1′-y1)-2-(tetrahydrofuran-2-yl)ethan-1-one], not below 5.01 µM.
